Experimental data published in patent EP2292241A1, “A SCUTELLARIN DERIVATIVE, THE PREPARING PROCESS, THE PHARMACEUTICAL COMPOSITION AND THE USE THEREOF” (Kunming Pharmaceutical Corp., priority 2008, dated 2009).

Legend:
[1] = comparative study on solubilities (China Pharmacopeia 2005 terms); assay type: physicochemical; settings: terms per China Pharmacopeia 2005
Text: Table 7 Comparison on solubilities of compound A1 of the present invention and scutellarin

[2] = tested on: rats with myocardial ischemia caused by coronary artery ligation; test: myocardial ischemia caused by coronary artery ligation in rats; assay type: in vivo, SD rat; settings: for rate of platelet aggregation: ADP-induced, turbidimetry; for range of myocardial infarction: TTC stain, infarcted part as % of ventricle weight; for range of myocardial infarction rate of decrease: compared with the modeling group; for indicators of coagulation APTT / indicators of coagulation FIB / indicators of coagulation PT / indicators of coagulation TT: plasma 24h after ligation
Procedure: Male SD rats of 330~385g were divided at random into sham group, model group, breviscapine tablet of 40mg/kg group, A1 20mg/kg group and A1 40mg/kg group. Animals of each group were gavage once daily for consecutive 5 days in predetermined dosage, for blank group and model group, the rats were given same volume of 0.5% CNC-Na in 10ml/kg body weight. At 30 minute after the last administration, the animals were anesthetized with 12% chloral hydrate in 350 mg/kg via intraperitoneal injection, then a thoracotomy was performed to render the heart exposed. The left anterior descending coronary artery was found between pulmonary artery cone and left ventricular and was ligated at 2-3mm to the root. Reposited the heart and closed the thoracic cavity. For the sham group, the suture was merely placed but not ligated.
II lead limb ECGs before ligation and at 5min, 30 min, 1h, 2h, 4h and 24h after ligation were recorded, respectively. The change of S-T segment (J point) was measured. After 24h ECG was recorded, blood was collected in duplicate via carotid artery intubation. For one sample, serum was separated and the activity of AST, LDH and CK-MB was determined according to the method of the kit; for another sample, it was treated with 3.8% sodium citrate in 1:9 for the purpose of anticoagulation, centrifuged at 1000rpm for 5 minutes to prepare platelet rich plasma (PRP), and centrifuged at 3500rpm for 10 minutes to prepare platelet poor plasma (PPP). The rate of platelet aggregation induced by ADP-2Na was determined according to turbidimetry, the final concentration of ADP was […]; TT, PT, APTT and FIB was determined according to the method of the kit, respectively. The heart was removed quickly after blood taking, and placed into ice cold saline solution to pump out deposit blood in thoracic cavity. The atria and adipose tissue were removed, and water was adsorbed to dryness. The ventricle was weighed, cut into 5 pieces along the coronal, then incubated and stained for 10 minutes in 1% TTC solution at 37°C in darkness. […] The infracted part was cut and weighed. The percentage of infracted part accounting for the total weight of ventricle was calculated, which was the range of myocardial infarction.

[3] = tested on: rats with MCAO induced focal cerebral ischemia; test: focal cerebral ischemia induced by MCAO (middle cerebral artery occlusion) in rats; assay type: in vivo, SD rat; settings: for range of cerebral infarction: TTC stain, % of bilateral cerebral hemispheres weight; for behavior score: full score 12, higher = more severe; for rate of platelet aggregation: ADP-induced, turbidimetry; for range of cerebral infarction rate of decrease: compared with the modeling group; for indicators of coagulation APTT / indicators of coagulation FIB / indicators of coagulation PT / indicators of coagulation TT: plasma 24h after modeling
Procedure: Male SD rats, weighing 240~290g, grouping and dosages were as above. Additionally, a positive control group, i.e., nimodipine 50mg/kg group was set up. Animals of each group were gavage once daily for consecutive 5 days in predetermined dosage. At 30 minute after the last administration, the animals were anesthetized with 12% chloral hydrate in 350 mg/kg via intraperitoneal injection. The animals were kept left lateral position and the skin was cut along the middle point between right ear and eye line. Temporalis was separated and cheekbone was sheared. A holl was drilled with a dental drill in front of zygomatic root and MCA was exposed. The MCA was hooked with a needle between the vein and olfactory tract in the brain, then was broke, after bleeding was stopped with a cotton ball, muscle and skin layer was sutured in layer. For the sham group, except for no breaking of MCA, other steps were same.
The animals were scored on neurological functions at 6 hour and 24 hour after modeling, according to behavior such as movement. Such score was used as an indicator of brain dysfunction. […] The standards of grading were as follows;
The full score of the above standards is 12. The higher the score is, the more severe the behavior disorder is.
24 hour after modeling and after neurological scoring, blood was taken via carotid artery intubation in duplicate. For one sample, serum was separated and the activity of AST and LDH was determined according to the method of the kit; for another sample, it was treated with 3.8% sodium citrate in 1:9 for the purpose of anticoagulation, centrifuged at 1000rpm for 5 minutes to prepare platelet rich plasma (PRP), and centrifuged at 3500rpm for 10 minutes to prepare platelet poor plasma (PPP). The rate of platelet aggregation induced by ADP-2Na was determined according to turbidimetry, the final concentration of ADP was […]; TT, PT, APTT and FIB was determined according to the method of the kit, respectively. The brain was removed quickly by decollation after blood taking, and then placed into ice cold saline solution to remove olfactory bulb, cerebellum and brainstem. The brain was weighed after water being absorbed to dryness, and then cut into 5 pieces along the coronal, placed into a 5ml solution containing 4% TTC and 0.1ml K2HPO4 (1mol/L) and incubated for 30 minutes at 37°C and in darkness. During the course every 7 to 8 minutes a turning was made. […] The infracted part was cut and weighed. The percentage of infracted tissue accounting for the total weight of bilateral cerebral hemispheres was calculated by weight area method, which was the range of cerebral infarction.

[4] = toxic or adverse effect at high dosage in animal experiments; assay type: in vivo
[5] = 20mg/kg, serum 24h after ligation
[6] = 40mg/kg, serum 24h after ligation

Structure (SMILES): O=C(O)[C@H]1O[C@@H](Oc2cc3oc(-c4ccc(O)cc4)cc(=O)c3c(O)c2O)[C@H](O)[C@@H](O)[C@@H]1O [scutellarin]
- solubility ([1]; 0.01N NaOH): soluble
- solubility ([1]; 95%EtOH): slightly soluble
- solubility ([1]; H2O): very slightly soluble
- solubility ([1]; MeOH): slightly soluble
- solubility ([1]; n-BuOH): slightly soluble

Structure (SMILES): COc1ccc(-c2cc(=O)c3c(OC)c(OC)c(OC4O[C@H](C(=O)O)[C@@H](O)[C@H](O)[C@H]4O)cc3o2)cc1 (stereo partly shown) [A1, 4',5,6-trimethoxylscutellarin]
- change of S-T segment after ligation ([2]; 20mg/kg gavage once daily 5 days, 5min after ligation): 0.17±0.11 mv
- change of S-T segment after ligation ([2]; 20mg/kg gavage once daily 5 days, 30min after ligation): 0.12±0.09 mv
- change of S-T segment after ligation ([2]; 20mg/kg gavage once daily 5 days, 1h after ligation): 0.11±0.08 mv
- change of S-T segment after ligation ([2]; 20mg/kg gavage once daily 5 days, 2h after ligation): 0.11±0.07 mv
- change of S-T segment after ligation ([2]; 20mg/kg gavage once daily 5 days, 4h after ligation): 0.11±0.08 mv
- change of S-T segment after ligation ([2]; 20mg/kg gavage once daily 5 days, 24h after ligation): 0.07±0.08 mv
- rate of platelet aggregation ([2]; 20mg/kg, 24h after ligation): 51.20±7.41 %
- range of myocardial infarction ([2]; 20mg/kg): 3.50±2.68 %
- range of myocardial infarction rate of decrease ([2]; 20mg/kg): 45.65%
- indicators of coagulation APTT ([2]; 20mg/kg): 78.17 ± 28.14 s
- indicators of coagulation FIB ([2]; 20mg/kg): 4.77 ± 1.11 g/L
- indicators of coagulation PT ([2]; 20mg/kg): 25.90 ± 3.51 s
- indicators of coagulation TT ([2]; 20mg/kg): 92.41 ± 42.37 s
- myocardial enzymology AST [2, 5]: 0.61±0.26 ku/L
- myocardial enzymology CK-MB [2, 5]: 0.71±0.45 ku/L
- change of S-T segment after ligation ([2]; 40mg/kg gavage once daily 5 days, 5min after ligation): 0.14±0.12 mv
- change of S-T segment after ligation ([2]; 40mg/kg gavage once daily 5 days, 30min after ligation): 0.06±0.06 mv
- change of S-T segment after ligation ([2]; 40mg/kg gavage once daily 5 days, 1h after ligation): 0.05±0.04 mv
- change of S-T segment after ligation ([2]; 40mg/kg gavage once daily 5 days, 2h after ligation): 0.05±0.04 mv
- change of S-T segment after ligation ([2]; 40mg/kg gavage once daily 5 days, 4h after ligation): 0.06±0.05 mv
- change of S-T segment after ligation ([2]; 40mg/kg gavage once daily 5 days, 24h after ligation): 0.02±0.03 mv
- rate of platelet aggregation ([2]; 40mg/kg, 24h after ligation): 48.22±5.55 %
- range of myocardial infarction ([2]; 40mg/kg): 2.52±2.16 %
- range of myocardial infarction rate of decrease ([2]; 40mg/kg): 60.87%
- indicators of coagulation APTT ([2]; 40mg/kg): 75.96 ± 35.87 s
- indicators of coagulation FIB ([2]; 40mg/kg): 3.95 ± 0.84 g/L
- indicators of coagulation PT ([2]; 40mg/kg): 25.75 ± 5.26 s
- indicators of coagulation TT ([2]; 40mg/kg): 93.04 ± 35.64 s
- myocardial enzymology AST [2, 6]: 0.61±0.20 ku/L
- myocardial enzymology CK-MB [2, 6]: 0.80±0.68 ku/L
- myocardial enzymology LDH [2, 6]: 0.61±0.24 ku/L
- body weight 6h after surgery ([3]; 20mg/kg): 258.3 ± 11.9 g
- body weight 24h after surgery ([3]; 20mg/kg): 250.0 ± 15.1 g
- body weight prior to surgery ([3]; 20mg/kg): 268.8 ± 12.4 g
- range of cerebral infarction ([3]; 20mg/kg gavage once daily 5 days): 2.36±1.81 %
- behavior score ([3]; 20mg/kg, 6h after modeling): 6.42±1.62
- serum enzymes AST ([3]; 20mg/kg, 24h after modeling): 171.2±71.6 u/L
- serum enzymes LDH ([3]; 20mg/kg, 24h after modeling): 571.1±287.5 u/L
- behavior score ([3]; 20mg/kg, 24h after modeling): 4.92±1.31
- rate of platelet aggregation ([3]; 20mg/kg, 24h after modeling): 50.52±4.07 %
- range of cerebral infarction rate of decrease ([3]; 20mg/kg): 59.10%
- indicators of coagulation APTT ([3]; 20mg/kg): 62.48 ± 29.08 s
- indicators of coagulation FIB ([3]; 20mg/kg): 3.38 ± 1.07 g/L
- indicators of coagulation PT ([3]; 20mg/kg): 25.56 ± 5.30 s
- indicators of coagulation TT ([3]; 20mg/kg): 95.55 ± 24.80 s
- body weight 6h after surgery ([3]; 40mg/kg): 253.8 ± 12.1 g
- body weight 24h after surgery ([3]; 40mg/kg): 244.2 ± 12.2 g
- body weight prior to surgery ([3]; 40mg/kg): 265.8 ± 12.4 g
- range of cerebral infarction ([3]; 40mg/kg gavage once daily 5 days): 2.04±1.43 %
- behavior score ([3]; 40mg/kg, 6h after modeling): 5.75±1.42
- serum enzymes AST ([3]; 40mg/kg, 24h after modeling): 152.9±33.0 u/L
- serum enzymes LDH ([3]; 40mg/kg, 24h after modeling): 472.0±231.9 u/L
- behavior score ([3]; 40mg/kg, 24h after modeling): 4.25±1.60
- rate of platelet aggregation ([3]; 40mg/kg, 24h after modeling): 52.38±5.24 %
- range of cerebral infarction rate of decrease ([3]; 40mg/kg): 64.64%
- indicators of coagulation APTT ([3]; 40mg/kg): 75.15 ± 27.41 s
- indicators of coagulation FIB ([3]; 40mg/kg): 3.59 ± 0.76 g/L
- indicators of coagulation PT ([3]; 40mg/kg): 23.43 ± 8.66 s
- indicators of coagulation TT ([3]; 40mg/kg): 62.04 ± 40.80 s
- toxic or adverse effect [4]: No toxic or adverse effect was found

Structure (SMILES): COCCOC(=O)C1=C(C)NC(C)=C(C(=O)OC(C)C)C1c1cccc([N+](=O)[O-])c1 (stereo not shown) [nimodipine, reference compound]
- body weight 6h after surgery ([3]; 50mg/kg): 257.1 ± 11.4 g
- body weight 24h after surgery ([3]; 50mg/kg): 249.6 ± 10.5 g
- body weight prior to surgery ([3]; 50mg/kg): 265.8 ± 12.9 g
- range of cerebral infarction ([3]; 50mg/kg gavage once daily 5 days): 2.27±2.56 %
- behavior score ([3]; 50mg/kg, 6h after modeling): 6.50±1.68
- serum enzymes AST ([3]; 50mg/kg, 24h after modeling): 198.6±118.2 u/L
- serum enzymes LDH ([3]; 50mg/kg, 24h after modeling): 536.7±262.8 u/L
- behavior score ([3]; 50mg/kg, 24h after modeling): 4.83±1.40
- rate of platelet aggregation ([3]; 50mg/kg, 24h after modeling): 54.15±7.76%
- range of cerebral infarction rate of decrease ([3]; 50mg/kg): 60.66%
- indicators of coagulation APTT ([3]; 50mg/kg): 61.02 ± 44.79 s
- indicators of coagulation FIB ([3]; 50mg/kg): 3.52 ± 1.14 g/L
- indicators of coagulation PT ([3]; 50mg/kg): 23.38 ± 8.23 s
- indicators of coagulation TT ([3]; 50mg/kg): 88.55 ± 32.24 s
